We go through five molecules from paper PMC10412832 (Computational and Structural Biotechnology Journal, 2023).

One series deals with SARS-CoV-2. The conditions noted are these: cited from earlier work.
For series [1] the following is noted: ref [46]; cited from earlier work.
The conditions of series [2]: ref [44]; cited from earlier work.
The target of series [3] is recombinant SARS-CoV-2 M^pro (Severe acute respiratory syndrome coronavirus 2, UniProt P0DTD1).

Read-outs that look alike come from different tables or passages of the source. Ends that are not written are not given here.

“LL-37: Source: Homo sapiens (LLGDFFRKSKEKIGKEFKRIVQRIKDFLRNLVPRTES; Antibacterial peptide LL-37; UniProt P49913 134-170, looked up)”: the “Effect against viruses / SARS-CoV-2” value in the series on SARS-CoV-2 (ref [36]) was “effective against viruses and a few against SARS-CoV-2”.
“Protegrin 1: Source: Sus scrofa (RGGRLCYCRRRFCVCVGR; ends and bridges not checked; cysteine pairing not given here; UniProt P32194 131-148, looked up)”: the “Effect against viruses / SARS-CoV-2” value in the series with SARS-CoV-2 (ref [36]) is “effective against viruses and a few against SARS-CoV-2”.
Turning to “Protegrin 2: cysteine rich potent antimicrobial peptide originally isolated from pigs; two cysteine-cysteine disulfide bridges; PDB ID 2MUH”, the Toxicity result in series [1] is “low toxicity”. Moreover, in series [2], the Antimicrobial activity entry is “potent”. Besides, the “M^pro proteolytic cleavage activity” value in series [3] is recorded as “inhibits the proteolytic cleavage activity of M^pro”.
With “beta-defensin 1: naturally occurring antimicrobial peptide (DHYNCVSSGGQCLYSACPIFTKIQGTCYRGKAKCCK; ends and bridges not checked; cysteine pairing not given here; UniProt P60022 33-68, looked up)”, in the series on SARS-CoV-2 (ref [36]), the “Effect against viruses / SARS-CoV-2” value was “effective against viruses and a few against SARS-CoV-2”.

B1: human defensin 5: Source: Homo sapiens (peptide, UniProt Q01523 20-94, looked up)
Defensin alpha 5: ESLQERADEATTQKQSGEDNQDLAISFAGNGLSALRTSGSQARATCYCRTGRCATRESLSGVCEISGRLYRLCCR
modifications: Defensin-5
Consider B1, for which, in the series on SARS-CoV-2 (ref [38], [39]), the “Effect against viruses / SARS-CoV-2” value is “effective against viruses and a few against SARS-CoV-2”.
